What all share (experiment): NCI tumour cell line growth inhibition, 48 h
In assay [1] the test system is DU-145 prostate.
Assay [2] deals with HCT-116 colon.
For assay [3], the system named is SK-OV-3 ovarian.
Assay [4] has as its system 786-0 renal.
In assay [5] the test system is SF-539 CNS.
The subject of assay [6] is MDA-MB-435.
Assay [7] deals with RXF 393 renal.
In assay [8] the test system is HOP-92 NSCLC.
Assay [9] has as its system MDA-N.
Assay [10] relates to SK-MEL-28 melanoma.
The test system of assay [11] is SK-MEL-2 melanoma.
In assay [12] the test system is CAKI-1 renal.
Assay [13] deals with K-562 leukemia.
Assay [14] concerns MDA-MB-231 breast.
The test system of assay [15] is KM12 colon.
The test system of assay [16] is NCI/ADR-RES ovarian.
Assay [17] deals with T-47D breast.
Assay [18] relates to OVCAR-4 ovarian.
In assay [19] the test system is NCI-H460 lung.
The subject of assay [20] is RPMI-8226 leukemia.

Molecules are shown by their SMILES.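 Dose response: 5 concentrations. Exposure: 48 h. Format: 96-well plates. Endpoint: linear interpolation; highest concentration if not reached. Definition used: TGI = concentration required for complete inhibition of growth.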

Turning to `COc1cccc(C2ON=C(c3ccccc3)N2C23CC4CC(CC(C4)C2)C3)c1` (centres undefined), the TGI in [1], in assay [2], in assay [3], in assay [4], in assay [5] and in assay [6] was more than 10 µM in each case. Further, the TGI in [7], in assay [8], in [9], in assay [10], in [11] and in assay [12] was more than 10 µM each time. For the same molecule, the TGI in assay [13], in assay [14], in assay [15], in assay [16], in assay [17] and in [18] was more than 10 µM throughout. For the same molecule, the TGI in assay [19] and in assay [20] was more than 10 µM throughout.

Regarding `CCOC(=O)NC(C(=O)OCC)(N1CCN(c2cc3c(cc2F)c(=O)c(C(=O)O)cn3CC)CC1)C(F)(F)F` (centres undefined), the TGI in assay [1], in assay [2], in [3], in assay [4], in assay [5] and in [6] was more than 100 µM each time. Further, the TGI was more than 100 µM in assay [7]; more than 100 µM in assay [8]; more than 100 µM in [9]; 0.533 µM in [10]; more than 100 µM in assay [11]; more than 100 µM in assay [12]. The TGI in [13], in assay [14], in assay [15], in assay [16], in assay [17] and in assay [18] was more than 100 µM throughout. The TGI in assay [19] and in assay [20] was more than 100 µM each time.

Regarding `COc1cc(C(=O)C2C(=O)c3ccccc3C2C2(O)c3ccccc3CC2C(O)c2cc(OC)c(OC)c(OC)c2)cc(OC)c1OC` (centres undefined), the TGI in assay [1], in assay [2], in assay [3], in assay [4], in assay [5] and in assay [6] was more than 100 µM throughout. The TGI in assay [7], in [8], in assay [9], in [10], in assay [11] and in assay [12] was more than 100 µM in each case. Also, the TGI in [13], in assay [14], in [15], in [16], in assay [17] and in assay [18] was more than 100 µM each time. Also, the TGI in [19] was more than 100 µM; in assay [20], 84.4 µM.

In the case of `CO/C(=C/C(=O)C(Cl)(Cl)Cl)CC/C(=C\C(=O)C(Cl)(Cl)Cl)OC`, the TGI was 56.7 µM in [1]; 42.2 µM in assay [2]; 87.3 µM in [3]; 60.4 µM in [4]; 63.2 µM in assay [5]; 53.4 µM in assay [6]. For the same molecule, the TGI was 34.7 µM in [7]; 40.1 µM in assay [8]; 66 µM in assay [9]; 80.5 µM in [10]; 84.1 µM in assay [11]; 72.2 µM in assay [12]. Also, the TGI in assay [13] is more than 100 µM; in assay [14], more than 100 µM; in assay [15] it was 98.9 µM; in assay [16], more than 100 µM; in assay [17], 72.5 µM; in assay [18] it was 51 µM. The TGI in assay [19] stood at 99.3 µM; in assay [20], 70.9 µM.

For the molecule `Cc1cc(C)c2c(c1)C1=NCCN1C2(O)c1ccc(Cl)cc1` (centres undefined), the TGI in assay [1] came to 40.5 µM; in assay [2] it was 26 µM; in assay [3], 28.5 µM; in [4] it was 29.6 µM; in assay [5], 29 µM; in [6], 32.5 µM. For the same molecule, the TGI turned out to be 27.6 µM in [7]; 28.6 µM in [8]; 28.3 µM in assay [9]; 31 µM in assay [10]; 34.7 µM in assay [11]; 31.5 µM in assay [12]. Besides, the TGI in assay [13] turned out to be 65 µM; in assay [14], 28.2 µM; in [15], 30 µM; in assay [16], 30.2 µM; in assay [17], 41.7 µM; in assay [18], 29.7 µM. Moreover, the results for the TGI in assay [19] and in assay [20] were 29.3 µM and 33.2 µM, respectively.

Turning to `O=C(O)CC1NC(/C(=C/c2ccccc2O)NC(=O)c2ccccc2)OC1=O` (centres undefined), the TGI in assay [1] was more than 100 µM; in assay [2], more than 100 µM; in assay [3], more than 100 µM; in assay [4], more than 100 µM; in [5], 66.9 µM; in [6] it was more than 100 µM. In addition, the TGI is 99.2 µM in assay [7]; more than 100 µM in assay [8]; more than 100 µM in [9]; more than 100 µM in [10]; more than 100 µM in assay [11]; more than 100 µM in assay [12]. For the same molecule, the TGI was more than 100 µM in assay [13]; more than 68.3 µM in assay [14]; more than 100 µM in assay [15]; more than 100 µM in assay [16]; more than 100 µM in [17]; more than 38.2 µM in assay [18]. Besides, the TGI in assay [19] and in assay [20] was more than 100 µM throughout.

Consider `Nn1c(CCCCCCCCc2nnc(COc3ccccc3)n2N)nnc1COc1ccccc1`, for which the TGI in assay [1], in assay [2], in assay [3], in [4], in [6] and in assay [7] was more than 100 µM each time. Besides, the TGI in [8], in assay [9], in [10], in assay [11], in assay [12] and in assay [13] was more than 100 µM throughout. Also, the TGI in assay [14], in assay [15], in assay [16], in [17], in assay [18] and in assay [19] was more than 100 µM throughout. In assay [20], this molecule came in with a TGI of more than 100 µM.

The record behind these values is PubChem BioAssay (NCI).
